Data taken from US20240398831A1, “COMPOSITIONS COMPRISING SMALL MOLECULE REGULATORS OF TUMOR IMMUNITY AND METHODS OF USING SAME” (Duke University, priority 2021, published 2024).

Assays:
B16F10 cells = assay: Quantitative PCR of ER target genes in melanoma cells; format: cell-based, mouse; conditions: E2 1 nM, 16 hr
[1] = Uterine wet weights in ovariectomized mice; format: in vivo, mouse; conditions: E2 pellets 0.01 mg/60 days vs placebo
Description: ERα+ MCF7 cells served as a positive control. Cells were treated as either mock transfected or transfected with scrambled control or three different siRNA targeting Esr1. […] Esr1 was first normalized to Rplp0 and then Esr1 knockdown samples were normalized to a non-targeting control. RNA was collected from both cell lines after 48 hr of siRNA transfection. […] Mouse ovary served as a positive control. […] ERα+MCF7 cells served as a positive control (FIG. 5E, left). […] Data are expressed as individual data points and represented as mean±S.E.M. Significance was calculated by Student's t test or two-way ANOVA (FIGS. 5E-5F), followed by Bonferroni's multiple correction (**p<0.0001).
Ovarlectomy and subcutaneous pellet Insertion. Ovariectomy was performed as previously described (Nelson et al., Science 2013, 342, 1094-1098). Eight days prior to tumor inoculation, 7 weeks old C57BL/6J or 5 weeks old (iBP) female mice were subjected to ovariectomy or sham surgery. Mice were anesthetized in an inhalation chamber (2% Isoflurane) and maintained in half the dose of isoflurane (1%) via nose cone throughout the surgical process. Prior to surgery, mice were administered a 5 mg/kg dose of carprofen subcutaneously. […] The mouse was then removed from anesthesia and kept in a clean cage and monitored until conscious. The mice were monitored for recovery for 10 days.

B16F10 tumors = assay: B16F10 tumor growth in ovariectomized NSG mice; format: in vivo, mouse
Description: Tumor formation in these mice were induced with a single intradermal dose of 150 μg of 4-hydroxytamoxifen (4OHT). […] FIGS. 6A-6B and FIGS. 6E-6F are representative of two independent experiments. Data are expressed as mean t S.E.M. Significance was calculated using the Student's t test (FIG. 6C and FIG. 6H), log-rank test (FIG. 6D and FIG. 6G), and two-way ANOVA followed by Bonferroni's multiple correction (FIGS. 6A-6B, FIGS. 6E-6F, and FIG. 6I) (*p<0.05, *p<0.01, and ***<0.001).
Mice. C57BL/BJ, LysMCre (B6.129P2-Lyz2^tm1(cre)lfo/J) Pmel (B6.Cg-Thy1^a/Cy Tg(TcraTcrb)8Rest/J) mice were from Jackson Laboratories (Bar Harbor, ME). Age matched mice were used for all the studies. LysMCre mice were bred to Esr1^f/f mice to generate Esr1^f/f; LysMCre and littermate control LysMCre and Esr1^f/f mice. iBP (Braf^V600E/WT, Pten^f/fmTyrCreERT2) mice were generated by crossing breeders Braf^WT/WT/Pten^f/f, mTyrCreERT2 mice to BRAF^V600E, Pten^f/f mice. The mice were housed in secure animal facility cages in 12 hour light:dark cycles at temperature around 25° C. and 70% humidity. […]
Tumor models and cells. […] Tumors were measured thrice weekly using an electronic caliper. Tumor volumes were calculated by the formula V=L×(W×W)/2. For iBP mouse tumors, volumes were calculated by the formula V=L×B×H. For tumor growth rate studies mice were euthanized when the tumors reached a maximum size of 2000 mm^3.

CD3+ T cells = assay: T cells co-cultured with tumor infiltrating CD11b+ myeloid cells from iBP tumors; format: cell-based, mouse; conditions: myeloid cells from E2 vs placebo treated mice, 72 hr
Description: T cell proliferation assay and staining. CD3+ T cells were isolated from the spleens of C57BL/6J or P-mel mice with magnetic bead-based T cell isolation kit (Cat #19851, StemCell Technologies). T cells from naïve mice were stained with 5 μM CFSE (Cat #C34554, ThermoFisher Scientific) for 5 minutes in PBS+5% CFS with rapid vortexing following which the cells were washed twice with PBS. Stained T cells were then counted and plated in 96-well plates coated with anti-CD3 antibody (0.5 μg/mL, Cat #19851, ThermoFisher Scientific) anti-CD28 antibody (1 μg/mL, Cat #16-0281-86, Thermo Fisher Scientific) at desired density (250,000 T cells/50,000 CD11b or BMDM) in the presence of IL2 (50 ng/mL) (Cat #212-12, PeproTech). 72 hr after plating the cells were incubated with protein transport inhibitors brefeldin (Cat #00-4506-51, Thermo Fisher Scientific) and monensin (Cat #00-4505-51, Thermo Fisher Scientific) for 6 hr at a final concentration of 2 μM monensin and 3 μg/mL brefeldin after which they were collected and were processed for staining for flow cytometry.
These cells were then co-incubated with CD3^+ T cells isolated from the spleens of non-tumor bearing Pmel mice (Thy1^a/Cy Tg(TcraTcrb)8Rest/J) for 72 hr. iBP tumors express gp100 (Pmel) that can be processed and presented by professional antigen presenting cells to T cells that are specific to the antigen (gp100). Prior to coincubation, T cells were stained with the Carboxyfluorescein succinimidyl ester (CFSE) dye and activated in the presence of sub-optimal CD3/CD28. […] In this experiment, the phenotypic characteristics of the isolated myeloid cells were not defined, i.e., bone marrow derived vs resident macrophages.

17β-estradiol [E2]
expression of classical ER target genes (Pgr and Cxc112) (B16F10 cells): did not lead to changes | uterine wet weights [1]: increase | slower tumor growth kinetics imparted by ovariectomy (placebo vs E2) (B16F10 tumors): disappeared | T cell (both CD4+ and CD8+) proliferation, CFSE dye dilution (CD3+ T cells): significantly inhibited | expression of IFNγ in CD8+ and CD4+ T cells (CD3+ T cells): decreased expression | expression of granzyme B (GZMB) in CD8+ and CD4+ T cells (CD3+ T cells): decreased expression
